Measurements from paper PMC3683333, “^11C-LY2428703, a positron emission tomographic radioligand for the metabotropic glutamate receptor 1, is unsuitable for imaging in monkey and human brains” (EJNMMI Research, 2013).
Where two headings read alike, the source gives them in different places. Marks after values point to notes of the source that are not given here.

How the values were obtained:
mGluR1 [1] = target: T1, mGluR1 (Homo sapiens, UniProt Q13255); assay: Saturation binding assay with [^3H]LY456066, human cerebellar membranes; set-up: P2 membrane fractions were prepared from the cerebella of; from tissue; host or cells: human cerebellum, P2 membrane fraction; settings: humans
Procedure: (§1) P2 membrane fractions were prepared from the cerebella of male Sprague–Dawley rats (n = 3), male rhesus monkeys (n = 3), and female humans (n = 4). […] Nonspecific binding was defined by heterologous displacement of 1 μM LY480084 (mGlu1 antagonist) in select wells. Plates were incubated on ice for 75 min and membranes harvested on 0.3% polyethylenimine pretreated Wallac filter mats using a Tomtec Harvester MachII (Tomtec, Hamden, CT, USA). Dissociation constant (KD) and receptor density (Bmax) values were obtained in GraphPad Prism using standard nonlinear one-site binding equations. Data are presented as mean ± SEM (n = 3 to 4); one-way analysis of variance followed by Tukey's post hoc test.

mGluR1 [2] = target: T2, mGluR1 (Rattus norvegicus, UniProt P23385); assay: Saturation binding assay with [^3H]LY456066, rat cerebellar membranes; set-up: species or system Sprague–Dawley rats; settings: rats; fp from ref 10
T2 construct: P2 membrane fractions were prepared from the cerebella of male Sprague–Dawley rats; from tissue; host or cells: rat cerebellum, P2 membrane fraction
Procedure: as §1

mGluR1 [3] = target: T1, mGluR1; assay: Brain PET at baseline, human; type: in vivo; set-up: from tissue; host or cells: brain of living healthy human volunteers (in vivo PET); settings: for VT: mean ± SD
Excerpt: (§2) Three healthy females participated in the study (29 ± 2-year old, 69 ± 13 kg). All were free from current medical and psychiatric illnesses, as assessed by medical history, physical examination, electrocardiogram, urinalysis including drug screening, and blood tests (complete blood count, serum chemistries, thyroid function test, and antibody screening for syphilis, HIV, and hepatitis B). The National Institutes of Health Central Nervous System Institutional Review Board approved the protocols and the consent forms. Written informed consent was obtained from all subjects.
(§3) PET images were acquired using the GE Advance scanner (GE Healthcare, Milwaukee, WI, USA) for 120 min. An 8-min ^68Ge transmission scan was obtained before the injection of the radiotracer for attenuation correction. The mean injected activity was 328 ± 12 MBq. The specific activity at the time of injection was 87.2 ± 34.7 GBq/μmol, which corresponded to 5.5 ± 2.3 nmol (0.082 ± 0.037 nmol/kg) of carrier. Blood samples (1 mL each) were drawn from the radial artery at 15-s intervals until 150 s, followed by 3-mL samples at 3, 4, 6, 8, 10, 15, 20, 30, 40, and 50 min, and 4.5 mL at 60, 75, 90, and 120 min. The unchanged parent fraction in plasma and fP of ^11C-LY2428703 were determined as described above.
To identify brain regions, magnetic resonance (MR) images were obtained using a 3-T GE Signa device (GE Healthcare, Milwaukee, WI, USA). T1-weighted structural images were acquired with a voxel size of 0.86 mm × 0.86 mm × 1.2 mm. The image acquisition sequences were the time of repetition (7.3 ms), echo time length (2.8 ms), and flip angle (6°).
The average PET image created from all frames was first coregistered to the individual MR image. Then, both MR and all PET images were spatially normalized to a standard anatomic orientation (Montreal Neurological Institute (MNI) space) based on transformation parameters from the MR images. A volume-of-interest template as implemented in PMOD (PMOD Technologies Ltd, Zurich, Switzerland) was used to obtain brain time-activity curves.
Volumes of distribution (VT) were obtained by nonlinear compartmental analysis. Goodness-of-fit by nonlinear least squares analysis was evaluated using the Akaike Information Criterion (AIC) and Model Selection Criterion (MSC). The most appropriate model is that with the smallest AIC and the largest MSC score. Goodness-of-fit by the compartment models was compared with F statistics. A value of P < 0.05 was considered significant for F statistics. The identifiability of kinetic variables was calculated as standard error obtained from the diagonal of the covariance matrix and expressed as a percentage of the rate constant.

[4] = Plasma free fraction by ultrafiltration, human; type: in vitro ADME; settings: humans, n = 3
Procedure: The plasma free fraction (fp) of ^11C-LY2428703 was measured by ultrafiltration through membrane filters (Centrifree; Millipore, Billerica, MA, USA) as previously described. Briefly, about 740 kBq of ^11C-LY2428703 (approximately 5 μL) was added to 650 μL of plasma. The mixture was incubated at room temperature for 10 min and then processed as described previously. When radioactivities for the filter components were high, they were allowed to decay until they were within the optimal range of the γ-counter. Determining the free fraction during preblocking was done by drawing blood samples after the preblocking treatments were initiated but immediately before administering the radioligand.
as §3

P-gp = tested on: P-gp; set-up: method as in PMID 23135321; settings: previous in vitro analyses; cited from earlier work
[5] = room temperature, octanol; cited from earlier work
[6] = set-up: method as in PMID 23135321; settings: rats; cited from earlier work
[7] = Pharmacological effects of injection, human; type: in vivo; settings: three human subjects
Excerpt: as §2

T1 sequence (Q13255 19-1194): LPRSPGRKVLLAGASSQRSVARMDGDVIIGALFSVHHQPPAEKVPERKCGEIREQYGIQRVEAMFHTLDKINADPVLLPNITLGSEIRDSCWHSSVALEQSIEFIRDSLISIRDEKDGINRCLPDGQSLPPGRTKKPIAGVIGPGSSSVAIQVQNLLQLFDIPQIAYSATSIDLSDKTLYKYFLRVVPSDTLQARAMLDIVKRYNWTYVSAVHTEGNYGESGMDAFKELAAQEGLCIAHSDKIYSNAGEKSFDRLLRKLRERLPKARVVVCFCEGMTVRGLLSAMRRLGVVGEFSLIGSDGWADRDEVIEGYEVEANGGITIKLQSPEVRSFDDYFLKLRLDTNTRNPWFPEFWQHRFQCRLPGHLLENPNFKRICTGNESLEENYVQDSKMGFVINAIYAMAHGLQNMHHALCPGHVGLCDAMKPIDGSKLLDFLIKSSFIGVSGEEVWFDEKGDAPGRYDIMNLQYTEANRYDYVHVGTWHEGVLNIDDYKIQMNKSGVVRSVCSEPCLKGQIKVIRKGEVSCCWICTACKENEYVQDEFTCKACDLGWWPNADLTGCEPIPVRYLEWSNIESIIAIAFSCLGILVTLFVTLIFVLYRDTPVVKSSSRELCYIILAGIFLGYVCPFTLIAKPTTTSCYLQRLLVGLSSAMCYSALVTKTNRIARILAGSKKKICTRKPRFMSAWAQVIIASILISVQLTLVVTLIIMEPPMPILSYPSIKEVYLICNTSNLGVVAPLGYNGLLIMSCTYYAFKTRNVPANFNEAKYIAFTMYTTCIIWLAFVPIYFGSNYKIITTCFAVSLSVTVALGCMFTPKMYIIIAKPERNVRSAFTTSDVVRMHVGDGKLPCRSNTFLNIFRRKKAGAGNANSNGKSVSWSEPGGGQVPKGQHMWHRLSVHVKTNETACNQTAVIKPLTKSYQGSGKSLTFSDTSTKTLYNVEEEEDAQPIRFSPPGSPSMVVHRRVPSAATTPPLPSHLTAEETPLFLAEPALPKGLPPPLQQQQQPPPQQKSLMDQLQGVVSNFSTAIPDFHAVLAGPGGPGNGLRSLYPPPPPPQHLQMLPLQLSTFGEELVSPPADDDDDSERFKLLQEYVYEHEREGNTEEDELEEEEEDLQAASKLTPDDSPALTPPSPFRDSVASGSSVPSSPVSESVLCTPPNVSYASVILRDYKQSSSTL
T2 sequence (P23385 19-1199): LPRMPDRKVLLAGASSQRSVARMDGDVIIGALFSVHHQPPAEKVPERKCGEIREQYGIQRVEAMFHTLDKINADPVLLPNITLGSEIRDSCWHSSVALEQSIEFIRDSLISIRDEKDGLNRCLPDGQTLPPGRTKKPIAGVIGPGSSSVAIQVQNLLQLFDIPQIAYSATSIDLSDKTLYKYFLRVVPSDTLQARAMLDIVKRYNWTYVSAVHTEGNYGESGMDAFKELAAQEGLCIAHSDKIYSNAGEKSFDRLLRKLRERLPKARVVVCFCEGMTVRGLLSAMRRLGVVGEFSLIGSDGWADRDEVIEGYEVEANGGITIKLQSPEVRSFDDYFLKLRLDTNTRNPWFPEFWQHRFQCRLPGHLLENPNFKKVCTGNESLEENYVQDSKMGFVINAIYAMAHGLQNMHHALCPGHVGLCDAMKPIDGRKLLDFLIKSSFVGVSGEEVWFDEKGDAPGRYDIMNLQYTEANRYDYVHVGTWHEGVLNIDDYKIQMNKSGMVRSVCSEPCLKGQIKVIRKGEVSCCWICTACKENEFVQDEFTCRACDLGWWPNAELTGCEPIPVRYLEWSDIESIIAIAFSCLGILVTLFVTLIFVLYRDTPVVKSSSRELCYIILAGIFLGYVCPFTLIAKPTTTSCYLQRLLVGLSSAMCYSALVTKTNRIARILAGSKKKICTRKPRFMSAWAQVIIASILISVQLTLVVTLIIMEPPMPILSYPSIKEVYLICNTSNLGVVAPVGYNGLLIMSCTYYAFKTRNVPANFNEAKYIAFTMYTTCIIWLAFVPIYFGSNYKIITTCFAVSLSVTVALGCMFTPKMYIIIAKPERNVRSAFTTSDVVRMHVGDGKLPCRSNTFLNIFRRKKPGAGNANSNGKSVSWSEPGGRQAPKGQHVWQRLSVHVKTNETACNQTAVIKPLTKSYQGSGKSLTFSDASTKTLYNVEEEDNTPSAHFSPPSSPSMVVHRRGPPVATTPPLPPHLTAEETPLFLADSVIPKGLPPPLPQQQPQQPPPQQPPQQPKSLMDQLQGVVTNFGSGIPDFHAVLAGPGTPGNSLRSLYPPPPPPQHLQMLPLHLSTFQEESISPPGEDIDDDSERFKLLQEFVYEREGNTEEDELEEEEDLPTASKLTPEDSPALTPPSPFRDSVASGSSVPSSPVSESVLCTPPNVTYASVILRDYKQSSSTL

- fp × Bmax/KD (=VS), effective BP (mGluR1 [1]): 0.016
- fp × Bmax/KD (=VS), effective BP (mGluR1 [2]): 0.683
- VT values (mGluR1 [3]; 2TCM, all brain regions): < 0.1 mL/cm^3
- time of brain peak uptake (mGluR1 [3]; after injection): 1.3 ± 0 min
- time at which brain activity decreased to 50% of the peak (mGluR1 [3]; average): 20 min
- VT (mGluR1 [3]; caudate, two-tissue compartment model): 0.086 ± 0.024 (22.6%) mL · cm^−3
- VT (mGluR1 [3]; cerebellum, two-tissue compartment model): 0.090 ± 0.010 (2.8%) mL · cm^−3
- VT (mGluR1 [3]; frontal cortex, two-tissue compartment model): 0.092 ± 0.016 (14.2%) mL · cm^−3
- VT (mGluR1 [3]; parietal cortex, two-tissue compartment model): 0.087 ± 0.011 (4.9%) mL · cm^−3
- VT (mGluR1 [3]; temporal cortex, two-tissue compartment model): 0.102 ± 0.010 (4.4%) mL · cm^−3
- mean VT (mGluR1 [3]; two-tissue compartment model): 0.093 ± 0.012 mL/cm^3
- brain peak uptake (mGluR1 [3]; without vascular correction): 1.14 ± 0.18 SUV
- fp (plasma free fraction) [4]: 0.094%
Compound: Cc1c(-c2ccc(O[11CH3])cc2)nsc1NC(=O)[C@@H]1C[C@H]1C [^11C-LY2428703]
- substrate for P-gp (P-gp): not a substrate
- LogD [5]: 4.02
- fp (plasma free fraction) [6]: 2.7^a %
- pharmacological effects (vital signs, electrocardiogram, laboratory testing, verbal reports) [7]: no pharmacological effects
